From PubChem BioAssay AID1259411 (Chemical Carcinogenesis Research Information System (CCRIS), 2018)
Calls of active or inactive are those of the source. How the calls were made is not given here.

Tested on: rodent carcinogenicity bioassays, tumor incidence
Experiment: CCRIS carcinogenicity studies
Procedure, shortened: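 Archive of carcinogenicity, mutagenicity, tumor promotion and tumor inhibition results drawn from journals, NCI reports and other sources, expert-reviewed; covers 1985-2011 and is no longer updated.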

Measured: carcinogen call

CCN(N=O)C(N)=O
active: Species: HAMSTER, Strain/Sex: SYRIAN/FEMALE, Route: GAVAGE, Dose: 0, 12 MG/ML ((0.2 ML OF A SOLUTION IN ETHYL ACETATE/CORN OIL (1:2)) 1/WK FOR 20 WK (STUDY DURATION: LIFE SPAN), Tumor Site: Type of Lesion: SPLEEN: HEMANGIOSARCOMA, FORESTOMACH: SQUAMOUS CELL CARCINOMA OR PAPILLOMA active; positive | Species: HAMSTER, Strain/Sex: SYRIAN/MALE, Route: GAVAGE, Dose: 0, 12 MG/ML ((0.2 ML OF A SOLUTION IN ETHYL ACETATE/CORN OIL (1:2)) 1/WK FOR 20 WK (STUDY DURATION: 20 WK), Tumor Site: Type of Lesion: SPLEEN: HEMANGIOSARCOMA, FORESTOMACH: SQUAMOUS CELL CARCINOMA OR PAPILLOMA active; positive | Species: HAMSTER, Strain/Sex: SYRIAN/MALE, Route: INTRAPERITONEAL, Dose: 60, 274 MG/KG IN SODIUM CHLORIDE/SODIUM CITRATE ONCE, Tumor Site: Type of Lesion: FORESTOMACH: SQUAMOUS CELL PAPILLOMA active; positive | Species: MOUSE, Route: INTRAPERITONEAL, Tumor Site: Type of Lesion: LIVER, KIDNEY, OVARIES, LUNG, HARDERIAN GLAND, LYMPHATIC SYSTEM, STOMACH, Tumor Site: Type of Lesion: LIVER, KIDNEY, OVARIES, LUNG, HARDERIAN GLAND, LYMPHATIC SYSTEM, STOMACH active; positive | Species: MOUSE, Route: SUBCUTANEOUS, Tumor Site: Type of Lesion: LIVER, LUNG, LYMPHATIC SYSTEM, Tumor Site: Type of Lesion: LIVER, LUNG, LYMPHATIC SYSTEM active; positive | Species: RAT, Route: INTRAPERITONEAL, Tumor Site: Type of Lesion: LYMPHATIC SYSTEM: LYMPHOMA, HEMATOPOIETIC SYSTEM (LEUKEMIA) active; positive | Species: RAT, Route: INTRAVENOUS, Tumor Site: Type of Lesion: BRAIN, NERVOUS SYSTEM (PERIPHERAL), HEMATOPOIETIC SYSTEM (LEUKEMIA), UTERUS, VAGINA, Tumor Site: Type of Lesion: BRAIN, NERVOUS SYSTEM (PERIPHERAL), HEMATOPOIETIC SYSTEM (LEUKEMIA), UTERUS, VAGINA active; positive | Species: RAT, Route: ORAL, Tumor Site: Type of Lesion: BRAIN, NERVOUS SYSTEM (PERIPHERAL), HEMATOPOIETIC SYSTEM (LEUKEMIA), Tumor Site: Type of Lesion: BRAIN, NERVOUS SYSTEM (PERIPHERAL), HEMATOPOIETIC SYSTEM (LEUKEMIA) active; positive | Species: RAT, Route: PRE-NATAL EXPOSURE, Tumor Site: Type of Lesion: NERVOUS SYSTEM active; positive | Species: RAT, Route: SUBCUTANEOUS, Tumor Site: Type of Lesion: BRAIN, NERVOUS SYSTEM (PERIPHERAL) active; positive | Species: RAT, Strain/Sex: F344/FEMALE, Route: GAVAGE, Dose: 0, 6, 12 MG/ML (TOTAL DOSE 0; 0.4; 0.8 MMOL) IN 2 ML ETHYL ACETATE AND CORN OIL (1:2) 2/WK FOR 20 WK (STUDY DURATION: LI, Dose: 0, 6, 12 MG/ML (TOTAL DOSE 0; 0.4; 0.8 MMOL) IN 2 ML ETHYL ACETATE AND CORN OIL (1:2) 2/WK FOR 20 WK (STUDY DURATION: LI, Tumor Site: Type of Lesion: FORESTOMACH: SQUAMOUS CELL CARCINOMA, LUNG: TUMOR, MAMMARY GLAND: TUMOR, Tumor Site: Type of Lesion: FORESTOMACH: SQUAMOUS CELL CARCINOMA, LUNG: TUMOR, MAMMARY GLAND: TUMOR active; positive | Species: RAT, Strain/Sex: F344/FEMALE, Route: GAVAGE, Dose: 0, 6, 12 MG/ML IN 0.2 ML ETHYL ACETATE AND CORN OIL 2/WK FOR 20 WK (STUDY DURATION: LIFESPAN), Dose: 0, 6, 12 MG/ML IN 0.2 ML ETHYL ACETATE AND CORN OIL 2/WK FOR 20 WK (STUDY DURATION: LIFESPAN), Tumor Site: Type of Lesion: FORESTOMACH: TUMOR, LUNG: TUMOR, MAMMARY GLAND: TUMOR, UTERUS: TUMOR, ZYMBAL GLAND: TUMOR, Tumor Site: Type of Lesion: FORESTOMACH: TUMOR, LUNG: TUMOR, MAMMARY GLAND: TUMOR, UTERUS: TUMOR, ZYMBAL GLAND: TUMOR active; positive | Species: RAT, Strain/Sex: F344/FEMALE, Route: INTRAVESICULAR, Dose: 0, 1.2 MG 2/WK FOR 20 WK (STUDY DURATION: LIFETIME), Tumor Site: Type of Lesion: BLADDER: TUMOR active; positive | Species: RAT, Strain/Sex: F344/FEMALE, Route: INTRAVESICULAR, Dose: 0, 2.4 MG 2/WK FOR 14 WK (STUDY DURATION: LIFETIME), Tumor Site: Type of Lesion: BLADDER: TUMOR active; positive | Species: RAT, Strain/Sex: F344/FEMALE, Route: ORAL, Dose: 0, 0.3, 1, 3, 10 PPM IN DRINKING WATER FOR 104 WK (STUDY DURATION: 111 WK), Dose: 0, 0.3, 1, 3, 10 PPM IN DRINKING WATER FOR 104 WK (STUDY DURATION: 111 WK), Tumor Site: Type of Lesion: BRAIN: GLIOMA, UTERUS: ENDOMETRIAL STROMAL POLYP, MAMMARY GLAND: ADENOCARCINOMA, HEMATOPOIETIC SYSTEM: MONONUCLEAR CELL, Tumor Site: Type of Lesion: BRAIN: GLIOMA, UTERUS: ENDOMETRIAL STROMAL POLYP, MAMMARY GLAND: ADENOCARCINOMA, HEMATOPOIETIC SYSTEM: MONONUCLEAR CELL active; positive
